Source: patent US20210361701A1, “PENTAAZA MACROCYCLIC RING COMPLEXES FOR LOCAL DELIVERY” (Galera Labs, LLC, priority 2017, published 2021)
Where “and” joins values, the source holds several entries; their conditions need not be identical. Equal entries are not always repeated. Where two headings read alike, the source gives them in different places.

What was measured:
[1] = Minipig intraduodenal (id) bioavailability of oil formulations versus iv parent complex; format: in vivo, Gottingen minipig; details: id 10 mg/kg, 10% by weight formulation, vs 1 mg/kg iv parent, AUC0->24 h
Method: Compounds were screened for oral bioavailability by injecting the formulated prodrugs directly into the duodenum (intraduodenal or id administration) of the minipig test subjects, thus bypassing the acidic environment of the stomach and thereby eliminating potentially misleading oral bioavailability results that could arise from alteration of the test article drug in the acid environment of the stomach.
The studies were conducted at Xenometrics LLC (Stillwell, Kans.) and the id bioavailability was determined using various axial ligand derivative complexes of GC4419, GC4444, GC4403 and GC4401. […] The following formula is then used to calculate the % oral bioavailability via intestinal absorption of the test article drug complex:
% Oral Bioavailability=AUC0->24 h(id)×(1/dose (mg/kg))÷AUC0->24 hr (iv)*
*Where the iv dose is 1 mg of test article drug per kilogram body weight of the mini-pig, and the dose administered id is 10 mg of test article drug per kg body weight of the mini-pig.
Male Gottingen minipigs (4-5 mo old, 9-12 kg weight) were purchased from Marshall BioResources and housed at Xenometrics. […] The distal end was exteriorized with a reusable accessible hub (see surgical details below). During a recovery period of at least 2 weeks the minipigs were handled daily to acclimate them to the test procedures, i.e., id dosing and blood collections. For each experiment, each minipig received a test article drug dissolved or suspended in an excipient vehicle. […] All dosing experiments were conducted in fasted animals. Food was withdrawn from the minipigs 16 hours before dosing. The minipigs had ad libitum access to water. Dosed minipigs were allowed access to food 6 hour after dosing. The test article was administered at a dose of 10 mg/kg parent drug in 0.1 mL/kg vehicle (e.g., 1.5 mL in 15 kg minipig) as a bolus injection (˜1 minute) via the id cannula. The actual amount of total test article drug administered varied with the formula weight of the prodrug. An equal volume of excipient vehicle was used to flush the cannula after the test article was administered. Approximately 6 hours later, corn oil was used to flush the cannula. After approximately 24 hours post-dose, the catheter was flushed with sterile saline solution and capped. At the following time-points 0.25, 0.5, 1, 2, 4, 8, 24 and 48 hour post-injection, 2 mL blood samples were collected by cranial vena cava puncture (4 mL Sodium heparin Vacutainer, 20 g 1.5″ needle) after the skin surface was wiped with ethanol. The minipig was placed in a sling in a recumbent position without anesthesia for the collection of blood samples. The minipigs were never used more than once per 7 days for experimentation. The blood samples were kept on ice until processed for plasma. Blood samples were centrifuged at 1200×g for ten minutes at 4° C. and plasma samples were transferred to 96 well plate tubes, capped and stored at −20° C. until shipment on dry ice to the analytical laboratory used for measuring the concentration of drug in the plasma. The concentration of the parent manganese pentaaza macrocylic ring complex (independent of the composition of the axial ligands) was measured in plasma using a validated HPLC/MS/MS method that is linear between 50 ng/mL and 20,000 ng/mL.
The oils used for preparing the dosing solutions were used as supplied from commercial sources. The Capmul MCM (NF) is a mixture of mono/diglycerides of caprylic/capric acids and was supplied by ABITEC Corporation, Janesville, Wis. The Miglyol 812 N is a mixture of caprylic/capric acid triglycerides and was supplied by Cremer Oleo Division, Eatontown, N.J. Labrafil M 2125 CS (NF) is chemically defined to be linoleoyl polyoxyl-6 glycerides NF and was supplied by Gattefosse, SAINT-PRIEST Cedex, France. Peceol is chemically defined to be the monoglyceride, glyceryl monooleate NF, and was supplied by Gattefosse, SAINT-PRIEST Cedex, France. […]

[2] = Rat indomethacin model of intestinal inflammation (Crohn's Disease); format: in vivo, Female Lewis rats
Method: A study was conducted to determine the potential efficacy of GC4403 delivered locally to the intestine in a model of intestinal inflammation (Crohn's Disease) induced by the administration of indomethacin. Female Lewis rats received cannulae surgically implanted in the duodenum with the opposite end exteriorized, and were allowed to recover. The cannulae enabled the direct injection of GC4403 or vehicle into the duodenum (intraduodenal or ID dosing) in these animals; however, uncannulated female Lewis rats were used for dosing groups not receiving ID dosing. Rats were administered indomethacin on experimental days 0 and 1 (9 mg/kg/d; subcutaneously) to induce lesions similar to those occurring in Crohn's disease in the small intestine (SI). The therapeutic interventions outlined in Table II were administered in 9 dosing groups of 10 (IV) or 12 (ID) animals each on days 0 through 3:
The rats were sacrificed and necropsied on day 4, and 10 cm sections from the middle portion of the SI (jejunum) were weighed and examined by histopathology for inflammation. The weight of a 10 cm section serves as a surrogate marker for comparing inflammation and edema across the dosing groups.

[3] = Maximum tolerated dose by 30-minute iv infusion in humans; details: in a 70-kg subject
[4] = 30-minute iv infusion in humans; cited from earlier work
[5] = chronic repeated IV dosing, rat; cited from earlier work
[6] = Plasma pharmacokinetics after intraduodenal or intravenous dosing in female rats; format: in vivo; details: for plasma concentrations and Cmax: rat, in vivo
Method: Therefore, following equivalent doses of GC4403, the systemic exposure to an ID dose in this Example was at least 30-100 times lower than it would be from an IV dose. […] This is important since the No Observable Adverse Effect Level (NOAEL) for chronic repeated IV dosing of GC4403 in the rat was previously shown to be only 3 mg/kg/day, and at this time, GC4403 has only be administered successfully to humans by the IV route. Thus, GC4403 or another related dismutase mimetic, such as GC4419, administered as an appropriate oral dosage form delivering drug directly into the small intestine may be an effective treatment for Crohn's Disease, ulcerative colitis and related diseases in humans.

[7] = Phase 1b trial of intravenous GC4419: oral mucositis outcome; format: in vivo, human; details: IV GC4419 with IMRT plus CDDP; compared with historical controls
Method: (§1) The toxicity of GC4419 administered intravenously was evaluated as a part of a phase 1b trial of the use of GC4419 in the treatment of oral mucositis (OM) in patients having oral cavity or oropharyngeal carcinoma. The bioavailability by intravenous administration is presumed to represent 100% systemic bioavailability. In particular, the patients tested included serial 3-6 patient cohorts, with locally-advanced, non-metastatic oral cavity or oropharyngeal carcinoma. The study called for intensity-modulated (IM)RT to approx. 70 Gy total (>50 Gy to >2 oral sites), 2.0-2.2 Gy/fx M-F plus CDDP; plus escalating doses of GC4419, via 60-minute IV infusion, M-F for 3-7 weeks, ending <60 minutes before IMRT. WHO grade of oral mucositis was assessed twice weekly, and levels of GC4419 were measured in plasma by LC/MS. Circulating cytokines (Cy) mechanistically related to oral mucositis were also assayed.

[8] = Phase 1b trial of intravenous GC4419: toxicity and plasma pharmacokinetics; format: in vivo, human
Method: as §1
Furthermore, or Phase 1 trials for chemoradiotherapy-induced mucositis (OM) in patients with mouth or oropharyngeal carcinoma, treatment was provided but certain adverse effects (e.g., due to systemic toxicity) occurred. The dosing regimen included dosing with GC4419 intravenously over a period of 60 minutes, ending 60 minutes before an IMRT fraction, according to the protocol as described above. The most common adverse effects were nausea, fatigue, leukopenia, dry mount, dysgeusia and vomiting, and most were attributable to chemo or radiation therapy. A true “maximum dose” was not reached in this study. […] 16% of patients receiving 90 mg/day had grade 3 nausea, and 25% of those receiving 112 mg/day had grade 3 nausea, with those receiving 112 mg/day also experiencing some grade 3 vomiting (i.e., 25%).

[9] = 10 mg/kg IP injection on days 0-3
[10] = 30 mg/kg ID, direct topical delivery into the intestine

In the case of “Manganese(II)bis-D-phenylglycinato [(4aS,13aS,17aS,21aS)-1,2,3,4,4a,5,6,12,13,13a, 14,15,16,17,17a,18,19,20,21,21a-Eicosahydro-11,7-nitrilo-7H-dibenzo[b,h][1,4,7,10] tetraazacyclo-heptadecine-κN5, κN13, κN18, κN21, κN22]- [GC4721]”, the “Mini-Pig BioA” value ([1]; Base oil Miglyol 812 N) is reported as 11.5%^.

In the case of CCCC(=O)[O-].CCCC(=O)[O-].[Mn+2].c1cc2nc(c1)CNC1CCCCC1NCCNC1CCCCC1NC2 [GC4713, Manganese(II)bis-n-Butyrato[(4aS,13aS,17aS,21aS)-1,2,3,4,4a,5,6,12,13,13a,14,15,16,17,17a,18,19,20,21,21a-Eicosahydro-11,7-nitrilo-7H-dibenzo[b,h][1,4,7,10]tetraazacycloheptadecine-κN5, κN13, κN18, κN21, κN22]-], the “Mini-Pig BioA” value ([1]; Base oil Labrafil M2125 CS) is reported as 21% and the “Mini-Pig BioA” value ([1]; Base oil Peceol) is reported as 18%.

In the case of [Cl-].[Cl-].[Mn+2].c1cc2nc(c1)CN[C@@H]1CCCC[C@H]1NCCN[C@@H]1CCCC[C@H]1NC2 [GC4403], the jejunal score [2, 9] is reported as “reduced”, the jejunal weight [2, 9] is reported as “reduced” and the “reduction in jejunal score” value [2, 10] is reported as 21%. For the same compound, the “reduction in jejunal weight” value [2, 10] was 32%, the maximum tolerated dose [3] was “roughly 0.35 mg/kg” and the maximum tolerated dose [4] was 25 mg. For the same compound, the “No Observable Adverse Effect Level (NOAEL)” value [5] was 3 mg/kg/day, the mean plasma maximum ([6]; 3 mg/kg IV dose, separate study, measured 10 min after injection) was “at least 3,280 ng/mL” and the “mean plasma maximum (Cmax)” value ([6]; 30 mg/kg ID dose) was 303 ng/mL. The calculated bioavailability ([6]; 30 mg/kg ID dose, AUC of ID vs estimated AUC with IV) was 3.1%, the “expected Cmax extrapolated” value ([6]; 30 mg/kg IV dose) was “approximately 32,800 ng/mL” and the “Cmax of ID dose relative to expected Cmax of same dose IV” value ([6]; 30 mpk ID vs 30 mg/kg IV (extrapolated)) was “less than 1%”. For the same compound, the “systemic exposure to an ID dose, lower than from an IV dose” value ([6]; equivalent doses) was 30-100 times.

For O=C([O-])c1ccccc1.O=C([O-])c1ccccc1.[Mn+2].c1cc2nc(c1)CNC1CCCCC1NCCNC1CCCCC1NC2 [GC4712, Manganese(II)bis-Benzoato[(4aS,13aS,17aS,21aS)-1,2,3,4,4a,5,6,12,13,13a,14,15,16,17,17a,18,19,20,21,21a-Eicosahydro-11,7-nitrilo-7H-dibenzo[b,h][1,4,7,10]tetraazacycloheptadecine-κN5, κN13, κN18, κN21, κN22]-], the “Mini-Pig BioA” value ([1]; Base oil Capmul MCM) was 24%, the “Mini-Pig BioA” value ([1]; Base oil Maisine 35-1) was 18% and the “Mini-Pig BioA” value ([1]; Base oil Peceol) was 29%.

With CC1NC2CCCCC2NCCNC2CCCCC2NCc2cccc1n2.CCC(=O)[O-].CCC(=O)[O-].[Mn+2] [GC4747, Manganese(II)bis-propionato[6R-Methyl(4aR,13aR,17aR,21aR)-1,2,3,4,4a,5,6,12,13,13a,14,15,16,17,17a,18,19,20,21,21a-Eicosahydro-11,7-nitrilo-7H-dibenzo[b,h][1,4,7,10]tetraazacycloheptadecine-κN5, κN13, κN18, κN21, κN22]-] the “Mini-Pig BioA” value ([1]; Base oil Labrafil M2125 CS) was 20%.

In the case of [Cl][Mn][Cl].c1cc2nc(c1)CN[C@H]1CCCC[C@@H]1NCCN[C@H]1CCCC[C@@H]1NC2 [GC4419], the “Severe OM” value [7] is reported as “briefer, delayed, less severe, and less frequent than expected”, the “nausea, patients” value ([8]; 30 mg/day for 14 or 30 doses, IV) is reported as 86% and the “nausea, patients” value ([8]; 50 mg/day for 14 doses, IV) is reported as 100%. For the same compound, the “nausea, patients” value ([8]; 75 mg/day for 14 doses, IV) was 67%, the “grade 3 nausea, patients” value ([8]; 90 mg/day, IV) was 20% and 16% and the “Dose-limiting toxicities that occurred, grade 3” value ([8]; 112 mg daily, 60-minute IV infusion, with IMRT/CDDP) was “gastroenteritis (3 wks); and vomiting with hyponatremia (5+ wks)”. For the same compound, the “nausea, patients” value ([8]; 112 mg/day for 14, 20, 25 or 30 doses, IV) was 89% and 85%, the “Cmax and AUC” value ([8]; 60-minute IV infusion, 15-112 mg) was “dose-proportional” and the “plasma t1/2” value ([8]; 60-minute IV infusion, patients) was about 2 h. The “dose limiting toxicity observed at” value ([8]; 60-minute IV infusion, grade 3 gastroenteritis at 3 weeks, grade 3 vomiting and hyponatremia at 5+ weeks) was 112 mg/day, the GC4419-related toxicity ([8]; IV, 15-112 mg daily for 3-7 weeks) was “acceptable” and the maximum dose ([8]; IV, up to 112 mg/day) was “not reached”. The facial tingling ([8]; during infusion) was “Mild, transient facial tingling was observed”, the paresthesia ([8]; patients receiving more than 30 mg/day, IV) was “Some grade 1-2 paresthesia was also observed” and the “plasma concentrations and Cmax” value [6] was “similarly low plasma concentrations and Cmax as GC4403”. The “plasma concentrations and Cmax” value ([6]; iv) was “similarly high plasma concentrations and Cmax”.
